# Laboratory results as given in patent US4363807A, “Cepham compounds” (Fujisawa Pharmaceutical Company, Limited, priority 1978, dated 1982).
# What was measured:
# [1] = test system: Klebsiella pneumoniae 20; assay: In vitro antibacterial activity, two-fold agar-plate dilution method (MIC), Klebsiella pneumoniae 20; format: cell-based; conditions: heart infusion agar, 37° C., 20 hours, read-out: MIC (minimal inhibitory concentration)
# Experimental: (§1) 1. In vitro antibacterial activity: (1) Test method: In vitro antibacterial activity was determined by the two-fold agar-plate dilution method as described below. One loopful of an overnight culture of each test strain in Trypticase soy broth was streaked on heart infusion agar (HI-agar) containing graded concentration of the test compound and incubated at 37° C. for 20 hours. The minimal inhibitory concentration (MIC) was expressed in μg/ml.
# [2] = test system: Proteus mirabilis 18; assay: In vitro antibacterial activity, two-fold agar-plate dilution method (MIC), Proteus mirabilis 18; format: cell-based; conditions: heart infusion agar, 37° C., 20 hours, read-out: MIC (minimal inhibitory concentration)
# Experimental: as §1
smiles,measurement,setting,value
"CO/N=C(\C(=O)NC1C(=O)N2C(C(=O)O)C(=COC(C)=O)CSC12)c1csc(N)n1 (stereo not drawn) [Test compound, 7-[2-(2-Aminothiazol-4-yl)-2-methoxyiminoacetamido]-3-acetoxymethylenecepham-4-carboxylic acid (syn isomer)]",MIC,[1],6.25 µg/mL
same,MIC,[2],6.25 µg/mL
